Measurements from patent US9296741B2, “Bromodomain inhibitors” (priority 2012, dated 2016).

Experiments:
[1] = test system: breast cancer cell line MX-1; assay: MX-1 cell line proliferation assay; assay type: cell-based, human; conditions: Homo sapiens, MX1, 72 h; MX-1 cells, 3-day proliferation, Cell Titer Glo; read-out: Cellular proliferation: EC50
[2] = Mouse liver microsome stability assay; assay type: in vitro ADME
[3] = Rat liver microsome stability assay; assay type: in vitro ADME; conditions: rat liver microsomes (male Sprague-Dawley), 0.5 μM test compound, pH 7.4, 37° C.; for half-life at 0.5 μM: 0.25 mg/mL microsomal protein, read-out: Stability in rat liver microsomes (t1/2 in minutes)
[4] = Human liver microsome stability assay; assay type: in vitro ADME; conditions: both sexes
[5] = target: human BRD4 second bromodomain (BDII_E352-M457) (Homo sapiens (Human), UniProt O60885); assay: TR-FRET bromodomain binding assay, BRD4 second bromodomain
[6] = target: human BRD4 first bromodomain (BDI_K57-E168) (Homo sapiens (Human), UniProt O60885); assay: TR-FRET bromodomain binding assay, BRD4 first bromodomain
[7] = male, CD1, mouse, microsomes, pH 7.4

SMILES	EC50 [1]	half-life at 0.5 μM [2, 7]	half-life at 0.5 μM [3]	half-life at 0.5 μM ([4]; human, microsomes, pH 7.4)	Stability in rat liver microsomes (t1/2 in minutes) ([3]; […] microsomal protein)	Ki [5]	Ki [6]	half-life at 0.5 μM ([2]; mouse liver microsomes (male CD1), 0.5 μM test compound, 0.25 mg/mL microsomal protein, pH 7.4, 37° C., read-out: Stability in mouse liver microsomes (t1/2 in minutes))	half-life at 0.5 μM ([4]; human liver microsomes, 0.5 μM test compound, 0.25 mg/mL microsomal protein, pH 7.4, 37° C., read-out: Stability in human liver microsomes (t1/2 in minutes))
Cn1cc(-c2ccccc2CN2CCOCC2)c2cc[nH]c2c1=O [Example 12, 6-methyl-4-[2-(morpholin-4-ylmethyl)phenyl]-1,6-dihydro-7H-pyrrolo[2,3-c]pyridin-7-one]	> 3 µM	33 min	10 min	51 min					
Cn1cc(-c2cc(C(=O)Nc3nccs3)ccc2Oc2ccccc2)c2cc[nH]c2c1=O [Example 17, 3-(6-methyl-7-oxo-6,7-dihydro-1H-pyrrolo[2,3-c]pyridin-4-yl)-4-phenoxy-N-(1,3-thiazol-2-yl)benzamide]	0.283 µM	16 min	18 min	31 min					
CCOC(=O)c1ccc(NC2CCCC2)c(-c2cn(C)c(=O)c3[nH]ccc23)c1 [Example 40, ethyl 4-(cyclopentylamino)-3-(6-methyl-7-oxo-6,7-dihydro-1H-pyrrolo[2,3-c]pyridin-4-yl)benzoate]	0.167 µM	6 min		13.1 min	1 min				
CCNC(=O)Cc1ccc(OCc2ccccc2)c(-c2cn(C)c(=O)c3[nH]ccc23)c1 [Example 46, 2-[4-(benzyloxy)-3-(6-methyl-7-oxo-6,7-dihydro-1H-pyrrolo[2,3-c]pyridin-4-yl)phenyl]-N-ethylacetamide]	0.588 µM	13 min	4 min	10 min					
Cc1ncccc1Oc1ccc(S(C)(=O)=O)cc1-c1cn(C)c(=O)c2[nH]ccc12 [Example 179, 6-methyl-4-{2-[(2-methylpyridin-3-yl)oxy]-5-(methylsulfonyl)phenyl}-1,6-dihydro-7H-pyrrolo[2,3-c]pyridin-7-one]		34 min	55 min	80 min		0.0165 µM	0.0225 µM		
CC(C)c1ccc(Oc2ccc(S(C)(=O)=O)cc2-c2cn(C)c(=O)c3[nH]ccc23)cc1 [Example 192, 6-methyl-4-{5-(methylsulfonyl)-2-[4-(propan-2-yl)phenoxy]phenyl}-1,6-dihydro-7H-pyrrolo[2,3-c]pyridin-7-one]		3 min	5 min	9 min		0.0096 µM	0.0513 µM		
Cn1cc(-c2cc(S(C)(=O)=O)ccc2Oc2cccc3ccncc23)c2cc[nH]c2c1=O [Example 193, 4-[2-(isoquinolin-8-yloxy)-5-(methylsulfonyl)phenyl]-6-methyl-1,6-dihydro-7H-pyrrolo[2,3-c]pyridin-7-one]		2 min	7 min	11 min		0.0136 µM	0.0704 µM		
Cn1cc(-c2cc(S(C)(=O)=O)ccc2Oc2cc(F)c(F)c(F)c2)c2cc[nH]c2c1=O [Example 194, 6-methyl-4-[5-(methylsulfonyl)-2-(3,4,5-trifluorophenoxy)phenyl]-1,6-dihydro-7H-pyrrolo[2,3-c]pyridin-7-one]		49 min	38 min	41 min		0.0191 µM	0.0289 µM		
Cn1cc(-c2cc(S(C)(=O)=O)ccc2OCCN2CCNC2=O)c2cc[nH]c2c1=O [Example 218, 6-methyl-4-{5-(methylsulfonyl)-2-[2-(2-oxoimidazolidin-1-yl)ethoxy]phenyl}-1,6-dihydro-7H-pyrrolo[2,3-c]pyridin-7-one]		> 120 min	> 120 min	> 120 min		0.0689 µM	0.0693 µM		
CN1CCC[C@H]1COc1ccc(S(C)(=O)=O)cc1-c1cn(C)c(=O)c2[nH]ccc12 [Example 222, 6-methyl-4-[2-{[(2S)-1-methylpyrrolidin-2-yl]methoxy}-5-(methylsulfonyl)phenyl]-1,6-dihydro-7H-pyrrolo[2,3-c]pyridin-7-one]		98 min	80 min	65 min		0.969 µM	0.225 µM		
CN1CCCC1CCOc1ccc(S(C)(=O)=O)cc1-c1cn(C)c(=O)c2[nH]ccc12 (stereo not drawn) [Example 225, 6-methyl-4-{2-[2-(1-methylpyrrolidin-2-yl)ethoxy]-5-(methylsulfonyl)phenyl}-1,6-dihydro-7H-pyrrolo[2,3-c]pyridin-7-one]		> 120 min	59 min	52 min		0.845 µM	0.264 µM		
Cn1cc(-c2cc(S(C)(=O)=O)ccc2OCCN2CCCC2=O)c2cc[nH]c2c1=O [Example 232, 6-methyl-4-{5-(methylsulfonyl)-2-[2-(2-oxopyrrolidin-1-yl)ethoxy]phenyl}-1,6-dihydro-7H-pyrrolo[2,3-c]pyridin-7-one]		> 120 min	> 120 min	57 min		0.443 µM	0.213 µM		
Cn1cc(-c2cc(C3=CCNCC3)ccc2OCC2CC2)c2cc[nH]c2c1=O [Example 340, 4-[2-(cyclopropylmethoxy)-5-(1,2,3,6-tetrahydropyridin-4-yl)phenyl]-6-methyl-1,6-dihydro-7H-pyrrolo[2,3-c]pyridin-7-one]			4 min			1.25 µM	0.942 µM	9 min	> 120 min
CCS(=O)(=O)Nc1ccc(Oc2ccc(F)cc2F)c(-c2cn(C)c(=O)c3[nH]cc(CN4CCOCC4)c23)c1 [Example 350, N-{4-(2,4-difluorophenoxy)-3-[6-methyl-3-(morpholin-4-ylmethyl)-7-oxo-6,7-dihydro-1H-pyrrolo[2,3-c]pyridin-4-yl]phenyl}ethanesulfonamide]		23 min	32 min	59 min		0.505 µM	1.4 µM		

Further lines, with some results ahead:

EC50 [1]	half-life at 0.5 μM [2, 7]	half-life at 0.5 μM [3]	half-life at 0.5 μM ([4]; human, microsomes, pH 7.4)	Stability in rat liver microsomes (t1/2 in minutes) ([3]; […] microsomal protein)	Ki [5]	Ki [6]	SMILES	half-life at 0.5 μM ([2]; mouse liver microsomes (male CD1), 0.5 μM test compound, 0.25 mg/mL microsomal protein, pH 7.4, 37° C., read-out: Stability in mouse liver microsomes (t1/2 in minutes))	half-life at 0.5 μM ([4]; human liver microsomes, 0.5 μM test compound, 0.25 mg/mL microsomal protein, pH 7.4, 37° C., read-out: Stability in human liver microsomes (t1/2 in minutes))
0.233 µM	3 min	2 min					COC(=O)Cc1ccc(OCc2ccccc2)c(-c2cn(C)c(=O)c3[nH]ccc23)c1 [Example 45, methyl [4-(benzyloxy)-3-(6-methyl-7-oxo-6,7-dihydro-1H-pyrrolo[2,3-c]pyridin-4-yl)phenyl]acetate]		
0.2 µM	13 min	9 min	25 min				Cn1cc(-c2cc(C(=O)N3CCCC3)ccc2Oc2ccc(F)cc2F)c2cc[nH]c2c1=O [Example 55, 4-[2-(2,4-difluorophenoxy)-5-(pyrrolidin-1-ylcarbonyl)phenyl]-6-methyl-1,6-dihydro-7H-pyrrolo[2,3-c]pyridin-7-one]		
	5 min	4 min	9 min		0.0082 µM	0.0248 µM	Cc1ccc(F)cc1Oc1ccc(S(C)(=O)=O)cc1-c1cn(C)c(=O)c2[nH]ccc12 [Example 187, 4-[2-(5-fluoro-2-methylphenoxy)-5-(methylsulfonyl)phenyl]-6-methyl-1,6-dihydro-7H-pyrrolo[2,3-c]pyridin-7-one]		
	6 min	22 min	26 min		0.018 µM	0.0294 µM	Cn1cc(-c2cc(S(C)(=O)=O)ccc2Oc2ccc3cccnc3c2)c2cc[nH]c2c1=O [Example 188, 6-methyl-4-[5-(methylsulfonyl)-2-(quinolin-7-yloxy)phenyl]-1,6-dihydro-7H-pyrrolo[2,3-c]pyridin-7-one]		
	2 min	6 min	7 min		0.0088 µM	0.0178 µM	Cn1cc(-c2cc(S(C)(=O)=O)ccc2Oc2ccc3c(c2)CCC3)c2cc[nH]c2c1=O [Example 191, 4-[2-(2,3-dihydro-1H-inden-5-yloxy)-5-(methylsulfonyl)phenyl]-6-methyl-1,6-dihydro-7H-pyrrolo[2,3-c]pyridin-7-one]		
	3 min	5 min	59 min		0.479 µM	9.5 µM	Cn1cc(-c2ccccc2-c2ccccc2)c2cc[nH]c2c1=O [Example 196, 4-(biphenyl-2-yl)-6-methyl-1,6-dihydro-7H-pyrrolo[2,3-c]pyridin-7-one]		
	16 min	8 min	16 min		0.0237 µM	0.0329 µM	C=C(C)c1cc2c(-c3cc(S(C)(=O)=O)ccc3Oc3ccc(F)cc3F)cn(C)c(=O)c2[nH]1 [Example 291, 4-[2-(2,4-difluorophenoxy)-5-(methylsulfonyl)phenyl]-6-methyl-2-(prop-1-en-2-yl)-1,6-dihydro-7H-pyrrolo[2,3-c]pyridin-7-one]		
	6 min	4 min	81 min		1.29 µM	1.6 µM	Cn1cc(-c2cc(CN3CCCC3)ccc2OCC2CC2)c2cc[nH]c2c1=O [Example 314, 4-[2-(cyclopropylmethoxy)-5-(pyrrolidin-1-ylmethyl)phenyl]-6-methyl-1,6-dihydro-7H-pyrrolo[2,3-c]pyridin-7-one]		
	> 120 min	> 120 min	> 120 min		0.0012 µM	0.0032 µM	CCS(=O)(=O)Nc1cc(-c2cn(C)c(=O)c3[nH]ccc23)c(Oc2ccc(F)cc2F)cc1C#N [Example 324, N-[2-cyano-4-(2,4-difluorophenoxy)-5-(6-methyl-7-oxo-6,7-dihydro-1H-pyrrolo[2,3-c]pyridin-4-yl)phenyl]ethanesulfonamide]		
